From US11407740B2 (priority 2018, dated 2022)
In brackets after ≈: the same amount, converted by molar mass.

These molecules were tested on E. coli (assay: Bacterial susceptibility testing, MIC by broth microdilution (CLSI)). Conditions: Escherichia coli, read-out: E. coli MIC, broth microdilution, 35° C., 18-24 h.
Description: Minimal inhibitory concentrations (MIC) were determined by the broth microdilution method in accordance with the Clinical and Laboratory Standards Institute (CLSI) guidelines. In brief, organism suspensions were adjusted to a 0.5 McFarland standard to yield a final inoculum between 3×10^3 and 7×10^5 colony-forming units (CFU)/mL. Drug dilutions and inocula were made in sterile, cation adjusted Mueller-Hinton Broth (Beckton Dickinson). An inoculum volume of 100 μL was added to wells containing 100 μL of broth with 2-fold serial dilutions of drug.

Row | Structure (SMILES) | MIC
1 | CN(Cc1ccc(C#Cc2ccc(C(CO)Cc3nc[nH]c(=O)c3O)cc2)cc1)[C@@H]1CCNC1 (mixture of isomers) [Compound 260] | 1 to 8 µg/mL
2 | CN1CC[C@@H](NCc2ccc(C#Cc3ccc(C(CO)Cc4nc[nH]c(=O)c4O)cc3)cc2)C1 (mixture of isomers) [Compound 261] | 1 to 8 µg/mL
3 | NCC(=O)N1CC[C@@H](NCc2ccc(C#Cc3ccc(C(CO)Cc4nc[nH]c(=O)c4O)cc3)cc2)C1 (mixture of isomers) [Compound 262] | 8 to 32 µg/mL
4 | CNC(Cc1nc[nH]c(=O)c1O)c1ccc(C#Cc2ccc(CN[C@@H]3CCOC3)cc2)cc1 (mixture of isomers) [Compound 265] | < 1 µg/mL
5 | O=c1[nH]cnc(CC(O)c2ccc(C#Cc3ccc(CN[C@@H]4CCOC4)cc3)cc2)c1O (mixture of isomers) [Compound 271] | < 1 µg/mL
6 | N[C@@H]1CCN(Cc2ccc(C#Cc3ccc(C(CO)Cc4nc[nH]c(=O)c4O)cc3)cc2)C1 (mixture of isomers) [Compound 292] | 1 to 8 µg/mL
7 | C[C@@H](CF)NCC(Cc1nc[nH]c(=O)c1O)c1ccc(C#Cc2ccc(CCN3CCOCC3)cc2)cc1 (mixture of isomers) [Compound 294] | < 1 µg/mL
8 | O=c1[nH]cnc(CC(CO)c2ccc(C#Cc3ccc(CN[C@H]4CCS(=O)(=O)C4)cc3)cc2)c1O (single isomer, unassigned) [Compound 39] | < 1 µg/mL
9 | O=c1[nH]cnc(CC(CO)c2ccc(C#Cc3ccc(CN[C@@H]4CCS(=O)(=O)C4)cc3)cc2)c1O (single isomer, unassigned) [Compound 40] | 1 to 8 µg/mL (≈ 2.03 to 16.2 µM)
10 | COC1CN(Cc2ccc(C#Cc3ccc(C(CN[C@H](C)CF)Cc4nc[nH]c(=O)c4O)cc3)cc2)C1 (single isomer, unassigned) [Compound 69] | < 1 µg/mL
11 | C[C@@H](CC#N)NCC(Cc1nc[nH]c(=O)c1O)c1ccc(C#Cc2ccc(CN3CCOCC3)cc2)cc1 (single isomer, unassigned) [Compound 98] | < 1 µg/mL
12 | C[C@@H](CC#N)NCC(Cc1ncnc(O)c1O)c1ccc(C#Cc2ccc(CN3CCOCC3)cc2)cc1 (single isomer, unassigned) [Compound 99] | < 1 µg/mL
13 | C[C@H](CC#N)NCC(Cc1ncnc(O)c1O)c1ccc(C#Cc2ccc(CN3CCOCC3)cc2)cc1 (single isomer, unassigned) [Compound 100] | < 1 µg/mL
14 | O=c1[nH]cnc(C[C@@H](CNCC(F)F)c2ccc(C#Cc3ccc(CN4CCOCC4)cc3)cc2)c1O (single isomer, unassigned) [Compound 116] | 1 to 8 µg/mL (≈ 1.97 to 15.7 µM)
15 | O=c1[nH]cnc(C[C@H](CNCC(F)F)c2ccc(C#Cc3ccc(CN4CCOCC4)cc3)cc2)c1O (single isomer, unassigned) [Compound 117] | < 1 µg/mL
16 | O=c1[nH]cnc(CC(CN[C@@H]2CCOC2)c2ccc(C#Cc3ccc(CN4CCOCC4)cc3)cc2)c1O (single isomer, unassigned) [Compound 162] | 1 to 8 µg/mL (≈ 1.94 to 15.5 µM)
17 | C[C@H](CO)NCC(Cc1nc[nH]c(=O)c1O)c1ccc(C#Cc2ccc(CN3CCOCC3)cc2)cc1 (single isomer, unassigned) [Compound 170] | 1 to 8 µg/mL (≈ 1.99 to 15.9 µM)
18 | C[C@@H](CF)NCC(Cc1nc[nH]c(=O)c1O)c1ccc(C#Cc2ccc(CNC3CCS(=O)(=O)C3)cc2)cc1 (single isomer, unassigned) [Compound 178] | 1 to 8 µg/mL (≈ 1.81 to 14.5 µM)
19 | CC(=O)N1CC[C@H](NCC(Cc2nc[nH]c(=O)c2O)c2ccc(C#Cc3ccc(CN4CCOCC4)cc3)cc2)C1 (single isomer, unassigned) [Compound 182] | 1 to 8 µg/mL (≈ 1.8 to 14.4 µM)
20 | O=c1[nH]cnc(CC(CN[C@@H]2CCS(=O)(=O)C2)c2ccc(C#Cc3ccc(CN4CCOCC4)cc3)cc2)c1O (single isomer, unassigned) [Compound 186] | < 1 µg/mL
21 | O=c1[nH]cnc(CC(CN[C@H]2CCS(=O)(=O)C2)c2ccc(C#Cc3ccc(CN4CCOCC4)cc3)cc2)c1O (single isomer, unassigned) [Compound 188] | < 1 µg/mL
22 | O=c1[nH]cnc(C[C@@H](CN2CC(F)C2)c2ccc(C#Cc3ccc(CN4CCOCC4)cc3)cc2)c1O (single isomer, unassigned) [Compound 215] | < 1 µg/mL
23 | O=c1[nH]cnc(C[C@H](CN2CC(F)C2)c2ccc(C#Cc3ccc(CN4CCOCC4)cc3)cc2)c1O (single isomer, unassigned) [Compound 216] | < 1 µg/mL
24 | COC1CN(Cc2ccc(C#Cc3ccc([C@@H](CO)Cc4nc[nH]c(=O)c4O)cc3)cc2)C1 (single isomer, unassigned) [Compound 217] | < 1 µg/mL
25 | COC1CN(Cc2ccc(C#Cc3ccc([C@H](Cc4nc[nH]c(=O)c4O)CN4CC(C#N)C4)cc3)cc2)C1 (single isomer, unassigned) [Compound 218] | < 1 µg/mL
26 | COC1CN(Cc2ccc(C#Cc3ccc([C@@H](Cc4nc[nH]c(=O)c4O)CN(C)C4CC4)cc3)cc2)C1 (single isomer, unassigned) [Compound 219] | < 1 µg/mL

Same assay, conditions: broth microdilution, 35° C., 18-24 h

Row | Structure (SMILES) | E. coli MIC
27 | O=c1[nH]cnc(CC(CO)c2ccc(C#Cc3ccc(CN[C@H]4CCOC4)cc3)cc2)c1O (single isomer, unassigned) [Compound 9] | B (B: >1 μg/mL to ≤8.0 μg/mL)
28 | O=c1[nH]cnc(CC(CO)c2ccc(C#Cc3ccc(CN[C@H]4CCOC4)cc3)cc2)c1O (single isomer, unassigned) [Compound 10] | A (A: ≤1 μg/mL)
29 | O=C(CO)N1CC[C@@H](NCc2ccc(C#Cc3ccc(C(CO)Cc4nc[nH]c(=O)c4O)cc3)cc2)C1 (single isomer, unassigned) [Compound 45] | B (B: >1 μg/mL to ≤8.0 μg/mL)
30 | O=C(CO)N1CC[C@@H](NCc2ccc(C#Cc3ccc(C(CO)Cc4nc[nH]c(=O)c4O)cc3)cc2)C1 (single isomer, unassigned) [Compound 46] | A (A: ≤1 μg/mL)
31 | CO[C@@H]1CCN(Cc2ccc(C#Cc3ccc(C(CN[C@@H](C)CF)Cc4nc[nH]c(=O)c4O)cc3)cc2)C1 (single isomer, unassigned) [Compound 87] | B (B: >1 μg/mL to ≤8.0 μg/mL)
32 | CO[C@@H]1CCN(Cc2ccc(C#Cc3ccc(C(CNCC(C)F)Cc4nc[nH]c(=O)c4O)cc3)cc2)C1 (single isomer, unassigned) [Compound 136] | D (D: >32 μg/mL)
33 | CO[C@@H]1CCN(Cc2ccc(C#Cc3ccc(C(CNCC(C)F)Cc4nc[nH]c(=O)c4O)cc3)cc2)C1 (single isomer, unassigned) [Compound 137] | B (B: >1 μg/mL to ≤8.0 μg/mL)
34 | O=c1[nH]cnc(CC(CN[C@@H]2CCOC2)c2ccc(C#Cc3ccc(CN4CCOCC4)cc3)cc2)c1O (single isomer, unassigned) [Compound 163] | A (A: ≤1 μg/mL)
35 | C[C@@H](CO)NCC(Cc1nc[nH]c(=O)c1O)c1ccc(C#Cc2ccc(CN3CCOCC3)cc2)cc1 (single isomer, unassigned) [Compound 168] | B (B: >1 μg/mL to ≤8.0 μg/mL)
36 | C[C@@H](CO)NCC(Cc1nc[nH]c(=O)c1O)c1ccc(C#Cc2ccc(CN3CCOCC3)cc2)cc1 (single isomer, unassigned) [Compound 169] | A (A: ≤1 μg/mL)
37 | C[C@H](CO)NCC(Cc1nc[nH]c(=O)c1O)c1ccc(C#Cc2ccc(CN3CCOCC3)cc2)cc1 (single isomer, unassigned) [Compound 171] | A (A: ≤1 μg/mL)
38 | CC(=O)N1CC[C@H](NCC(Cc2nc[nH]c(=O)c2O)c2ccc(C#Cc3ccc(CN4CCOCC4)cc3)cc2)C1 (single isomer, unassigned) [Compound 183] | A (A: ≤1 μg/mL)
